ChEMBL document CHEMBL5331061, “Design, synthesis, and biological evaluation of Wee1 kinase degraders” (Eur J Med Chem, 2022)
Activity calls are given as the source filed them. The calls are words filed in the database; no cut-off is given here.

Key:
SUM149PT = assay: Antiproliferative activity against human SUM149PT cells assessed as cell growth inhibition measured after 72 hrs by SRB Assay
MV4-11 [1] = assay: Antiproliferative activity against human MV4-11 cells assessed as cell growth inhibition measured after 72 hrs by SRB Assay; details: MV4-11, 72 h
A498 = assay: Antiproliferative activity against human A498 cells assessed as cell growth inhibition measured after 72 hrs by SRB Assay; details: A498, 72 h
MV4-11 [2] = assay: Effect on PLK1 expression in human MV4-11 cells at IC50 measured after 6 hrs by Western blot analysis; assay type: functional, cell-based
[3] = molecular target: T1, Protein cereblon/Wee1-like protein kinase (Homo sapiens, UniProt P30291+Q96SW2); assay: PROTAC activity at CRBN/Wee1 in human MV4-11 cells assessed as residual Wee1 level at IC50 measured after 6 hrs by Western blot analysis (reference value: 100%); assay type: cell-based
T1 sequence (P30291 whole entry, looked up): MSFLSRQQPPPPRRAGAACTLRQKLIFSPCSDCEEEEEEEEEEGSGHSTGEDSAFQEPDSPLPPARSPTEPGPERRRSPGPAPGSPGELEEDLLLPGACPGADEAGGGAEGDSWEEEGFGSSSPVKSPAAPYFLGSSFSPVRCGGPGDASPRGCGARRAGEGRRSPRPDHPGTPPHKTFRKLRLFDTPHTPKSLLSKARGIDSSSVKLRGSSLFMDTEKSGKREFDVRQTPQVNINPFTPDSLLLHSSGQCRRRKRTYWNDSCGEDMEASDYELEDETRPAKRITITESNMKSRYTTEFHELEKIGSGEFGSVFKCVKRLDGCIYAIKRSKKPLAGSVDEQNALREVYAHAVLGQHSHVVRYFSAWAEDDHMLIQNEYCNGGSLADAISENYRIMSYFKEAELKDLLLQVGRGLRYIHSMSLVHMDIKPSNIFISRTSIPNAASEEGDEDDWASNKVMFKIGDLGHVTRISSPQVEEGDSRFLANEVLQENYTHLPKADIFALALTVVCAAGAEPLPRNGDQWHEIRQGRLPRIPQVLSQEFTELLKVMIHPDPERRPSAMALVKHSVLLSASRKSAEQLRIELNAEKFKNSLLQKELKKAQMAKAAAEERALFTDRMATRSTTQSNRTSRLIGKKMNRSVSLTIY
T1 sequence (Q96SW2 whole entry, looked up): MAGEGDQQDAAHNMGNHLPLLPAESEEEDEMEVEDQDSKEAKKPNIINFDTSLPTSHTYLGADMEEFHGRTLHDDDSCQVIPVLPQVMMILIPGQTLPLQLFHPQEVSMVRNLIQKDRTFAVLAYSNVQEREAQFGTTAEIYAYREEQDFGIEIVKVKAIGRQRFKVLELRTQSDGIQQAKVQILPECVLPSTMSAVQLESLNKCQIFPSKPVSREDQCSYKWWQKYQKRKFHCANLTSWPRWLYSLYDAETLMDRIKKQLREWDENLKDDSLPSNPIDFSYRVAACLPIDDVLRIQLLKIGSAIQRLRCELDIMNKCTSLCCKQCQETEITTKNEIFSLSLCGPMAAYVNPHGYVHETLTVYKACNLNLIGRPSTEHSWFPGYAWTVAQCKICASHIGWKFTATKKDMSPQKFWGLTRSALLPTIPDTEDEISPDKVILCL

[4] = molecular target: Serine/threonine-protein kinase PLK1 (Homo sapiens, UniProt P53350); assay: Inhibition of PLK1 (unknown origin)
Serine/threonine-protein kinase PLK1, sequence (P53350 whole entry): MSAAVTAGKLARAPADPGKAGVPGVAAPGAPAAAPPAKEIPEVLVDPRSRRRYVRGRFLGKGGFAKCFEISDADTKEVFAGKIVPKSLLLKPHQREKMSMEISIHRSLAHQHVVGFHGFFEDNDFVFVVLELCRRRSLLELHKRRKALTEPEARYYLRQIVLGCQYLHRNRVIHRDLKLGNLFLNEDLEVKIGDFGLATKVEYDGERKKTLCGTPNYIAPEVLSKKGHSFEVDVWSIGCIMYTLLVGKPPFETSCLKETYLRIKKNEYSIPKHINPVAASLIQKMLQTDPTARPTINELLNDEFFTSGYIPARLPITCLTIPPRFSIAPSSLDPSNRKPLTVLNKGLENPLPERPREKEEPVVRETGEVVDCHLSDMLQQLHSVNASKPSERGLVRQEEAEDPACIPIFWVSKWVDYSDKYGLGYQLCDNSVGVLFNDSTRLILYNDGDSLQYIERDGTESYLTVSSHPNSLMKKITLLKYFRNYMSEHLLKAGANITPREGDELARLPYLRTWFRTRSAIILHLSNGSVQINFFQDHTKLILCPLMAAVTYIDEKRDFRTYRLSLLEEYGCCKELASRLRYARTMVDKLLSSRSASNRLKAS

[5] = Effect on Wee1 level in human MV4-11 cells assessed as Wee1 level at 100 nM measured after 6 hrs by Immunoblotting method relative to control (reference value: 100%); assay type: functional
[6] = Observed MRTinfinity ICR mouse at 20 mg/kg, po measured upto 360 mins; assay type: ADME, organism-based; details: in vivo
[7] = Effect on Wee1 level in human MV4-11 cells assessed as residual Wee1 level at 6.25 nM measured after 6 hrs by Immunoblotting method (reference value: 100%); assay type: functional
[8] = molecular target: Wee1-like protein kinase (Homo sapiens) (UniProt P30291); assay: Inhibition of Wee1 in human MV4-11 cells at IC50 measured after 6 hrs by Western blot analysis relative to control; assay type: cell-based
Wee1-like protein kinase (Homo sapiens), sequence (P30291 whole entry, looked up): as the sequence (P30291 whole entry, looked up) above

[9] = Effect on Wee1 level in human MV4-11 cells assessed as Wee1 level at 50 nM measured after 6 hrs by Immunoblotting method relative to control (reference value: 100%); assay type: functional
[10] = Half life in ICR mouse at 20 mg/kg, po measured upto 360 mins; assay type: ADME, organism-based; details: in vivo
[11] = Cmax in ICR mouse at 20 mg/kg, po measured upto 360 mins; assay type: ADME, organism-based; design: time < 360 min, dose 20 mg/kg, route po; details: in vivo
[12] = Effect on Wee1 level in human MV4-11 cells assessed as residual Wee1 level at 12.5 nM measured after 6 hrs by Immunoblotting method (reference value: 100%); assay type: functional
[13] = AUClast in ICR mouse at 20 mg/kg, po measured upto 360 mins; assay type: ADME, organism-based; design: time < 360 min, dose 20 mg/kg, route po; details: in vivo
[14] = molecular target: T1, Protein cereblon/Wee1-like protein kinase; assay: PROTAC activity at CRBN/Wee1 in human MV4-11 cells assessed as reduction in Wee1 level measured after 72 hrs by Western blot analysis; assay type: cell-based
[15] = Observed AUCinfinity ICR mouse at 20 mg/kg, po measured upto 360 mins; assay type: ADME, organism-based; design: time < 360 min, dose 20 mg/kg, route po; details: in vivo
[16] = Tmax in ICR mouse at 20 mg/kg, po measured upto 360 mins; assay type: ADME, organism-based; details: in vivo
[17] = Effect on Wee1 level in human MV4-11 cells assessed as Wee1 level at 25 nM measured after 6 hrs by Immunoblotting method relative to control (reference value: 100%); assay type: functional

IC50 (MV4-11 [1]) | Activity [3] | Compound | IC50 (SUM149PT) | IC50 (A498) | Activity (MV4-11 [2]) | other results
1110 nM | 49% | C=CCn1c(=O)c2cnc(Nc3ccc(N4CCN(CC(=O)NCCCCCCNc5cccc6c5C(=O)N(C5CCC(=O)NC5=O)C6=O)CC4)cc3)nc2n1-c1cccc(C(C)(C)O)n1 (configuration not stated) | 2810 nM | 6650 nM | inactive | 
1000 nM | 21% | C=CCn1c(=O)c2cnc(Nc3ccc(N4CCN(CC(=O)NCCOCCOCCNc5cccc6c5C(=O)N(C5CCC(=O)NC5=O)C6=O)CC4)cc3)nc2n1-c1cccc(C(C)(C)O)n1 (configuration not stated) | 6040 nM | > 10000 nM | inactive | IC50 [4]: > 10000 nM
2000 nM | 22% | C=CCn1c(=O)c2cnc(Nc3ccc(N4CCN(CC(=O)NCCCCC(=O)NCCNc5cccc6c5C(=O)N(C5CCC(=O)NC5=O)C6=O)CC4)cc3)nc2n1-c1cccc(C(C)(C)O)n1 (configuration not stated) | > 10000 nM | > 10000 nM | inactive | 
809 nM | 32% | C=CCn1c(=O)c2cnc(Nc3ccc(N4CCN(CC(=O)NCCCCCNc5cccc6c5C(=O)N(C5CCC(=O)NC5=O)C6=O)CC4)cc3)nc2n1-c1cccc(C(C)(C)O)n1 (configuration not stated) | 2130 nM | 6870 nM | inactive | 
2200 nM | 37% | C=CCn1c(=O)c2cnc(Nc3ccc(N4CCN(CC(=O)NCCOCCOCCOCCNc5cccc6c5C(=O)N(C5CCC(=O)NC5=O)C6=O)CC4)cc3)nc2n1-c1cccc(C(C)(C)O)n1 (configuration not stated) | > 10000 nM | > 10000 nM | inactive | 
182 nM | 24% | C=CCn1c(=O)c2cnc(Nc3ccc(N4CCN(CCCCCNc5cccc6c5C(=O)N(C5CCC(=O)NC5=O)C6=O)CC4)cc3)nc2n1-c1cccc(C(C)(C)O)n1 (configuration not stated) | 1260 nM | 1310 nM | inactive | 
5000 nM | 23% | C=CCn1c(=O)c2cnc(Nc3ccc(N4CCN(CC(=O)NCCCCC(=O)NCCOc5cccc6c5C(=O)N(C5CCC(=O)NC5=O)C6=O)CC4)cc3)nc2n1-c1cccc(C(C)(C)O)n1 (configuration not stated) | > 10000 nM | > 10000 nM | inactive | 
215 nM | 37% | C=CCn1c(=O)c2cnc(Nc3ccc(N4CCN(CC(=O)NCCCNc5cccc6c5C(=O)N(C5CCC(=O)NC5=O)C6=O)CC4)cc3)nc2n1-c1cccc(C(C)(C)O)n1 (configuration not stated) | 1550 nM | 7740 nM | inactive | 
226 nM | 21% | C=CCn1c(=O)c2cnc(Nc3ccc(N4CCN(CC(=O)NCCCCNc5cccc6c5C(=O)N(C5CCC(=O)NC5=O)C6=O)CC4)cc3)nc2n1-c1cccc(C(C)(C)O)n1 (configuration not stated) | 1590 nM | 5380 nM | inactive | 

Further lines, the compound ahead of its results:

Compound | IC50 (MV4-11 [1]) | Activity [3] | IC50 (SUM149PT) | IC50 (A498) | Activity (MV4-11 [2]) | other results
C=CCn1c(=O)c2cnc(Nc3ccc(N4CCN(CC(=O)NCCCCC(=O)NCc5ccc(COc6cccc7c6C(=O)N(C6CCC(=O)NC6=O)C7=O)cc5)CC4)cc3)nc2n1-c1cccc(C(C)(C)O)n1 (configuration not stated) | 7000 nM | 45% | > 10000 nM | > 10000 nM | inactive | 
C=CCn1c(=O)c2cnc(Nc3ccc(N4CCN(CC(=O)NCCOCCOCCOCCOCCNc5cccc6c5C(=O)N(C5CCC(=O)NC5=O)C6=O)CC4)cc3)nc2n1-c1cccc(C(C)(C)O)n1 (configuration not stated) | 408 nM | 49% | 3140 nM | 5830 nM | inactive | 
C=CCn1c(=O)c2cnc(Nc3ccc(N4CCN(CC(=O)NCCCCC(=O)NCc5ccc(CNc6cccc7c6C(=O)N(C6CCC(=O)NC6=O)C7=O)cc5)CC4)cc3)nc2n1-c1cccc(C(C)(C)O)n1 (configuration not stated) | 6000 nM | 27% | > 10000 nM | > 10000 nM | inactive | IC50 [4]: > 10000 nM
C=CCn1c(=O)c2cnc(Nc3ccc(N4CCN(CC(=O)NCCOCCOCCOCCOCCOCCOCCOCCOCCNc5cccc6c5C(=O)N(C5CCC(=O)NC5=O)C6=O)CC4)cc3)nc2n1-c1cccc(C(C)(C)O)n1 (configuration not stated) | 523 nM | 28% | 8850 nM | > 10000 nM | inactive | 
C=CCn1c(=O)c2cnc(Nc3ccc(N4CCN(CC(=O)NCCOCCOCCOCCOCCOCCOCCNc5cccc6c5C(=O)N(C5CCC(=O)NC5=O)C6=O)CC4)cc3)nc2n1-c1cccc(C(C)(C)O)n1 (configuration not stated) | 1130 nM | 33% | > 10000 nM | > 10000 nM | inactive | 
C=CCn1c(=O)c2cnc(Nc3ccc(N4CCN(C)CC4)cc3)nc2n1-c1cccc(C(C)(C)O)n1 [ADAVOSERTIB] | 133 nM |  | 536 nM | 216 nM | inactive | Activity [5]: 120%; MRT inf [6]: 2.84 h; Activity [7]: 90%; inhibition [8]: 94%; IC50 [4]: 268 nM; Activity [9]: 70%; half-life [10]: 7.15 h; Cmax [11]: 681 ng/mL; Activity [12]: 98%; AUC(0-t) at 6 h [13]: 915 ng·h/mL; Activity [14]: inactive; AUC(0-inf) [15]: 934 ng·h/mL; Tmax [16]: 0.25 h; Activity [17]: 90%
C=CCn1c(=O)c2cnc(Nc3ccc(N4CCN(CC(=O)NCCOCCOCCOCCOCCOCCNc5cccc6c5C(=O)N(C5CCC(=O)NC5=O)C6=O)CC4)cc3)nc2n1-c1cccc(C(C)(C)O)n1 (configuration not stated) | 2150 nM | 26% | > 10000 nM | 10000 nM | inactive | IC50 [4]: > 10000 nM
C=CCn1c(=O)c2cnc(Nc3ccc(N4CCN(CC(=O)NCCOCCOCCOCCOCCOCCOCCOCCNc5cccc6c5C(=O)N(C5CCC(=O)NC5=O)C6=O)CC4)cc3)nc2n1-c1cccc(C(C)(C)O)n1 (configuration not stated) | 716 nM | 21% | > 10000 nM | > 10000 nM | inactive | IC50 [4]: > 10000 nM
